From patent US8952034B2, “Fused heterocyclic compounds as ion channel modulators” (Gilead Sciences, Inc., priority 2009, dated 2015)

Target: wild-type human cardiac sodium channel, hNav1.5 (Homo sapiens, UniProt Q14524)
Test: Late INa screening assay (automated whole cell patch clamp, PatchXpress)
Type: cell-based
Settings: HEK293 cells expressing hNav1.5, late INa generated with 10 μM Tefluthrin (or 50 nM ATX II); for inhibition at 1 µM: compound at 1 μM, read-out: LateINa_1 uM (percent block of late INa); for inhibition at 10 µM: compound at 10 μM, read-out: LateINa_10 uM (percent block of late INa)
Protocol: The late sodium current (Late INa) and peak sodium current (Peak INa) assays are performed on an automated electrophysiology platform, PatchXpress 7000A (MDS Analytical Technologies, Sunnyvale, Calif.), which uses the whole cell patch clamp technique to measure currents through the cell membrane of up to 16 cells at a time. The assay uses an HEK293 (human embryonic kidney) cell line heterologously expressing the wild-type human cardiac sodium channel, hNav1.5, purchased from Millipore (Billerica, Mass.). No beta subunits were coexpressed with the Na channel alpha subunit. Cells are maintained with standard tissue culture procedures and stable channel expression is maintained with 400 μg/ml Geneticin in the culture medium. […] Experiments are carried out at 24-27° C.
For both the Late INa and Peak INa assays, series resistance compensation is set to 50% and whole-cell compensation is performed automatically. […] Currents through open sodium channels are automatically recorded and stored in the DataXpress2 database (MDS Analytical Technologies, Sunnyvale, Calif.). Analysis is performed using DataXpress2 analysis software and data are compiled in Excel.
Compound stocks are routinely made in glass vials to 10 mM in dimethyl sulfoxide (DMSO). In some cases, when compounds are not soluble in DMSO, they are made in 100% ethanol. Stocks are sonicated as necessary. The extracellular solution for screening Late INa is composed of: 140 mM NaCl, 4 mM KCl, 1.8 mM CaCl2, 0.75 mM MgCl2, and 5 mM HEPES with pH adjusted to 7.4 using NaOH. The extracellular solution for screening Peak INa is composed of: 20 mM NaCl, 120 mM N-methyl-D glucamine, 4 mM KCl, 1.8 mM CaCl2, 0.75 mM MgCl2, and 5 mM HEPES with pH adjusted to 7.4 using HCl. The intracellular solution used to perfuse the inside of the cells for both the Late INa and Peak INa assays contains: 120 mM CsF, 20 mM CsCl, 5 mM EGTA, 5 mM HEPES and pH adjusted to 7.4 with CsOH. […] The 0Na extracellular solution used at the end of each experiment for the Late INa and Peak INa assays to measure baseline current contains: 140 mM N-methyl-D-glucamine; 4 mM KCl; 1.8 mM CaCl2; 0.75 mM MgCl2; 5 mM HEPES and pH was adjusted to 7.4 with HCl.
For the Late INa assay, sodium channels are activated every 10 seconds (0.1 Hz) by depolarizing the cell membrane to −20 mV for 250 milliseconds (ms) from a holding potential of −120 mV. In response to a −20 mV voltage step, typical Nav1.5 sodium currents activate rapidly to a peak negative current and then inactivate nearly completely within […].
All compounds are tested to determine their activity in blocking the late sodium current. Late INa current is generated by adding 10 μM Tefluthrin (pyrethroid) to the extracellular solution while recording Na currents For some experiments, 50 nM ATX II (sea anemone toxin), another late INa activator, was used to generate the late component. […] After establishing the whole cell recording configuration, late INa activators are added to each well 4 times over a 16-17 minute period so that the late component of the Na current reaches a stable value. […] Measurements are made at the end of exposure to the third compound addition and values are normalized to the current level when all Na^+ is removed from the extracellular solution after two additions of 0Na-ECF. Results are reported as percent block of late INa

Sequence of wild-type human cardiac sodium channel, hNav1.5 (Q14524 whole entry): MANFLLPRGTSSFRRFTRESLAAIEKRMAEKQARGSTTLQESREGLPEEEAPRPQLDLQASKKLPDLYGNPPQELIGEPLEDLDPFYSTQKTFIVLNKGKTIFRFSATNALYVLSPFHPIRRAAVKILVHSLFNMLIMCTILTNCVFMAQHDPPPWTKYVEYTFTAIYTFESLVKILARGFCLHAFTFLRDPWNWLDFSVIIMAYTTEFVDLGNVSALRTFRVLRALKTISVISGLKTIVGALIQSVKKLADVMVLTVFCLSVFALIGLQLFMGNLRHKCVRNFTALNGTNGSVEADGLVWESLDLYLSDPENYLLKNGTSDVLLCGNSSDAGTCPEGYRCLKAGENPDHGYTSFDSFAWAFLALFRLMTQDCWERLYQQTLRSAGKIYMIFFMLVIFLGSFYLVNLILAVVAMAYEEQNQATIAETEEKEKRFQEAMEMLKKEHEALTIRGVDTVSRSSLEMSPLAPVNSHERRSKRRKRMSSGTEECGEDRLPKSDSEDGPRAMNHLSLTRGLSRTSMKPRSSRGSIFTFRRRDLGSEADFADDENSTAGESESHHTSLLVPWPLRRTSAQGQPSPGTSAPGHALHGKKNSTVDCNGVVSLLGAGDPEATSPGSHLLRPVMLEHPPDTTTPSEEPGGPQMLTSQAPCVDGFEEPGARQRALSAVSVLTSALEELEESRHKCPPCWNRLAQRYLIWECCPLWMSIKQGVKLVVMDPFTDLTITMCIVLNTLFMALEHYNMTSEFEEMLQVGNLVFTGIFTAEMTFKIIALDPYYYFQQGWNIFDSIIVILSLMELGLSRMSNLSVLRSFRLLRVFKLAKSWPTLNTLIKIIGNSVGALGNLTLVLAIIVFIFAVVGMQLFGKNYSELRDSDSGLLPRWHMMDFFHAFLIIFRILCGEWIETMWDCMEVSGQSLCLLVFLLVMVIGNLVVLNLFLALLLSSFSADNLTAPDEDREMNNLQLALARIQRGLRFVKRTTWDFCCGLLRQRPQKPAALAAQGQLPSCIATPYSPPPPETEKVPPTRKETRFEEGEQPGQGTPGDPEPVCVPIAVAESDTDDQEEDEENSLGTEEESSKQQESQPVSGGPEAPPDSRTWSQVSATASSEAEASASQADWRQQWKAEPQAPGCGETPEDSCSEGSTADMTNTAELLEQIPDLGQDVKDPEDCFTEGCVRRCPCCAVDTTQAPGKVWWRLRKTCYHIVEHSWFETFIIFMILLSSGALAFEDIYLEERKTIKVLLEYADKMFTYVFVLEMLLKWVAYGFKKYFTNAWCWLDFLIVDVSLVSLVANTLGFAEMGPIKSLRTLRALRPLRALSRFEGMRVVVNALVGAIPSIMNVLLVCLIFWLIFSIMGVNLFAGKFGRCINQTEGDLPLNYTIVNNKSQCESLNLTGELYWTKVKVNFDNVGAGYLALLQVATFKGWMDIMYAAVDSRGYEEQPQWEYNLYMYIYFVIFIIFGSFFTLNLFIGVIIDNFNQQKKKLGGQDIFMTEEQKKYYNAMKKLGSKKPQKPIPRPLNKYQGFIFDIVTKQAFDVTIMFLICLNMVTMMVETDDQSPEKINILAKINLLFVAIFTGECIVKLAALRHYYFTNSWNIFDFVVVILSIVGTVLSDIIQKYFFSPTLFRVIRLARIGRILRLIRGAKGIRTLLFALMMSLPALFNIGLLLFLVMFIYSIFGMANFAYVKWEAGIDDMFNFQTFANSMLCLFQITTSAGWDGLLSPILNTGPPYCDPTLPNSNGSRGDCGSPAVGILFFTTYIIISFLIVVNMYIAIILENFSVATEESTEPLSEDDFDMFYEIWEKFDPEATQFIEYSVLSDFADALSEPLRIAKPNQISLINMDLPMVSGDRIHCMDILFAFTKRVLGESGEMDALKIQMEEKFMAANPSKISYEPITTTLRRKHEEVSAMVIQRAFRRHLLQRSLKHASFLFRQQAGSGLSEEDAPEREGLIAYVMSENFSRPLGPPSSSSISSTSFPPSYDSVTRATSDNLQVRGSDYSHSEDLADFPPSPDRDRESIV

Row | SMILES | inhibition at 1 µM [%] | inhibition at 10 µM [%]
1 | FC(F)c1nnc2ccc(-c3ccc(OC(F)(F)F)cc3)nn12 [BHN-12, 3-(difluoromethyl)-6-[4-(trifluoromethoxy)phenyl][1,2,4]triazolo[4,3-b]pyridazine] | 39.6 | 79.7
2 | Cn1nc(COC(F)(F)c2nnc3ccc(-c4ccc(OC(F)(F)F)cc4)cn23)c2ccccc21 [BHN-307, 3-{difluoro[(1-methyl-1H-indazol-3-yl)methoxy]methyl}-6-[4-(trifluoromethoxy)phenyl][1,2,4]triazolo[4,3-a]pyridine] | 68.5 | –
3 | OC(C1CC1)C(F)(F)c1nnc2ccc(-c3ccc(OC(F)(F)F)cc3)cn12 (stereo not drawn) [BHN-166, 1-cyclopropyl-2,2-difluoro-2-{6-[4-(trifluoromethoxy)phenyl][1,2,4]triazolo[4,3-a]pyridin-3-yl}ethanol] | 29.5 | –
4 | FC(F)(F)Oc1ccc(-c2ccc3nnc(C(F)(F)OCc4noc(C5CC5)n4)n3c2)cc1 [BHN-206, 3-{[(5-cyclopropyl-1,2,4-oxadiazol-3-yl)methoxy](difluoro)methyl}-6-[4-(trifluoromethoxy)phenyl][1,2,4]triazolo[4,3-a]pyridine] | 44.7 | –
5 | Fc1cc(-c2ccc3nnc(C(F)(F)F)n3c2)cc(F)c1Oc1ccccc1 [BHN-109, 6-(3,5-difluoro-4-phenoxyphenyl)-3-(trifluoromethyl)[1,2,4]triazolo[4,3-a]pyridine] | 61.8 | –
6 | FC(F)(F)Oc1ccc(-c2ccc3nnc(C(F)(F)F)n3c2)c(-c2cccnc2)c1 [BHN-132, 6-[2-(pyridin-3-yl)-4-(trifluoromethoxy)phenyl]-3-(trifluoromethyl)[1,2,4]triazolo[4,3-a]pyridine] | 29.4 | –
7 | FC(F)(F)Oc1ccc(-c2ccc3nnc(C(F)(F)OCc4ccc(-n5cccn5)nc4)n3c2)cc1 [BHN-315, 3-(difluoro{[6-(1H-pyrazol-1-yl)pyridin-3-yl]methoxy}methyl)-6-[4-(trifluoromethoxy)phenyl][1,2,4]triazolo[4,3-a]pyridine] | 55.9 | –
8 | FC(F)(F)c1nnc2ccc(-c3ccc(Sc4ccccc4)cc3)cn12 [BHN-119, 6-[4-(phenylsulfanyl)phenyl]-3-(trifluoromethyl)[1,2,4]triazolo[4,3-a]pyridine] | 70.5 | –
9 | N#Cc1ccc(C(F)(F)Oc2ccc(-c3ccc4nnc(C(F)(F)F)n4c3)cc2)cc1 [BHN-280, 4-(difluoro{4-[3-(trifluoromethyl)[1,2,4]triazolo[4,3-a]pyridin-6-yl]phenoxy}methyl)benzonitrile] | 63.7 | –
10 | FC(F)(F)c1nnc2ccc(-c3ccc(Oc4ccc(Cl)cc4)cc3)nn12 [BHN-236, 6-[4-(4-chlorophenoxy)phenyl]-3-(trifluoromethyl)[1,2,4]triazolo[4,3-b]pyridazine] | 40 | –
11 | FC(F)(F)Oc1ccc(-c2ccc3nnc(C(F)(F)OCC4CC4(F)F)n3c2)cc1 (stereo not drawn) [BHN-294, 3-{[(2,2-difluorocyclopropyl)methoxy](difluoro)methyl}-6-[4-(trifluoromethoxy)phenyl][1,2,4]triazolo[4,3-a]pyridine] | 77.6 | –
12 | FC(F)(F)Oc1ccc(-c2ccc3nnc(C(F)(F)F)n3c2)cc1C(F)(F)F [BHN-189, 6-[4-(trifluoromethoxy)-3-(trifluoromethyl)phenyl]-3-(trifluoromethyl)[1,2,4]triazolo[4,3-a]pyridine] | 56.9 | –
13 | FC(F)c1nnc2ccc(-c3ccc(OCC(F)(F)F)nc3)nn12 [BHN-237, 3-(difluoromethyl)-6-[6-(2,2,2-trifluoroethoxy)pyridin-3-yl][1,2,4]triazolo[4,3-b]pyridazine] | 44.7 | –
14 | FC(F)(F)c1nnc2ccc(-c3ccc(OC(F)(F)c4ccccc4)cc3)cn12 [BHN-272, 6-{4-[difluoro(phenyl)methoxy]phenyl}-3-(trifluoromethyl)[1,2,4]triazolo[4,3-a]pyridine] | 64.9 | –
15 | FC(F)(F)Oc1ccc(-c2ccc3nnc(C(F)(F)COCc4cccnc4)n3c2)cc1 [BHN-139, 3-[1,1-difluoro-2-(pyridin-3-ylmethoxy)ethyl]-6-[4-(trifluoromethoxy)phenyl][1,2,4]triazolo[4,3-a]pyridine] | 15.4 | –
16 | OCC(F)(F)c1nnc2ccc(-c3ccc(Oc4ccccc4)cc3)cn12 [BHN-111, 2,2-difluoro-2-[6-(4-phenoxyphenyl)[1,2,4]triazolo[4,3-a]pyridin-3-yl]ethanol] | 29 | –
17 | CC(OC(F)(F)c1nnc2ccc(-c3ccc(OC(F)(F)F)cc3)cn12)c1ccccn1 (stereo not drawn) [BHN-230, 3-{difluoro[1-(pyridin-2-yl)ethoxy]methyl}-6-[4-(trifluoromethoxy)phenyl][1,2,4]triazolo[4,3-a]pyridine] | 42.3 | –
18 | N#Cc1ccc(-c2nnc3ccc(-c4ccc(Oc5ccccc5)cc4)nn23)cc1 [BHN-40, 4-[6-(4-phenoxyphenyl)[1,2,4]triazolo[4,3-b]pyridazin-3-yl]benzonitrile] | – | 38.2
19 | Cc1cc(OC(F)(F)F)ccc1-c1ccc2nnc(-c3ccc(C#N)cc3)n2n1 [BHN-41, 4-{6-[2-methyl-4-(trifluoromethoxy)phenyl][1,2,4]triazolo[4,3-b]pyridazin-3-yl}benzonitrile] | – | 59.1
20 | COCC(F)(F)c1nnc2ccc(C#Cc3ccccc3)cn12 [BHN-192, 3-(1,1-difluoro-2-methoxyethyl)-6-(phenylethynyl)[1,2,4]triazolo[4,3-a]pyridine] | 31 | –
21 | FC(F)(F)Oc1ccc(-c2ccc3nnc(C(F)(F)OCc4cn(Cc5ccccc5)nn4)n3c2)cc1 [BHN-297, 3-{[(1-benzyl-1H-1,2,3-triazol-4-yl)methoxy](difluoro)methyl}-6-[4-(trifluoromethoxy)phenyl][1,2,4]triazolo[4,3-a]pyridine] | 63.4 | –
22 | FC(F)(F)c1ccc(C#Cc2ccc3nnc(C(F)(F)F)n3c2)cc1 [BHN-177, 3-(trifluoromethyl)-6-{[4-(trifluoromethyl)phenyl]ethynyl}[1,2,4]triazolo[4,3-a]pyridine] | 23.6 | –
23 | FC(F)(F)COc1ccc(-c2ccc3nnc(C(F)(F)F)n3c2)nn1 [BHN-187, 6-[6-(2,2,2-trifluoroethoxy)pyridazin-3-yl]-3-(trifluoromethyl)[1,2,4]triazolo[4,3-a]pyridine] | 15.2 | –
24 | FC(F)(F)Oc1ccc(-c2ccc3nnc(C(F)(F)OCc4cnn(-c5ccccc5)c4)n3c2)cc1 [BHN-287, 3-{difluoro[(1-phenyl-1H-pyrazol-4-yl)methoxy]methyl}-6-[4-(trifluoromethoxy)phenyl][1,2,4]triazolo[4,3-a]pyridine] | 47.1 | –
25 | CC1(C)Cc2cccc(COC(F)(F)c3nnc4ccc(-c5ccc(OC(F)(F)F)cc5)cn34)c2O1 [BHN-321, 3-{[(2,2-dimethyl-2,3-dihydro-1-benzofuran-7-yl)methoxy](difluoro)methyl}-6-[4-(trifluoromethoxy)phenyl][1,2,4]triazolo[4,3-a]pyridine] | 65.6 | –
26 | FC(F)(F)Oc1ccc(-c2ccc3nnc(C(F)(F)OCc4ccccc4-c4ccc(C5CC5)nc4)n3c2)cc1 [BHN-325, 3-[{[2-(6-cyclopropylpyridin-3-yl)benzyl]oxy}(difluoro)methyl]-6-[4-(trifluoromethoxy)phenyl][1,2,4]triazolo[4,3-a]pyridine] | 68.3 | –
27 | c1ccc(Oc2ccc(-c3ccc4nnnn4c3)cc2)cc1 [BHN-97, 6-(4-phenoxyphenyl)tetrazolo[1,5-a]pyridine] | 73.2 | –
28 | FC(F)(F)COc1ccc(-c2ccc3nnc(C(F)(F)F)n3c2)cn1 [BHN-92, 6-[6-(2,2,2-trifluoroethoxy)pyridin-3-yl]-3-(trifluoromethyl)[1,2,4]triazolo[4,3-a]pyridine] | 63.5 | 76.3
